# Laboratory results: EP0554004A2, “Cephem compounds and antibacterial agents” (KATAYAMA SEIYAKUSYO CO. Ltd., priority 1992, dated 1993)
# Legend:
# Assay in all cases: MIC against standard strains (Test Example 1)
# Type in all cases: cell-based
# [1] = system: Citrobacter freundii ATCC 8090; conditions: ATCC8090, Muller-Hinton agar, 37°C overnight
# In short: (§1)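 We inoculate Mueller-Hinton agar carrying a single test agent with 1 x 10^6 CFU/ml bacteria from overnight broth culture, incubate overnight at 37°C, and report the lowest concentration blocking growth.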
# [2] = system: Escherichia coli CSH2 (RE45)
# In short: as §1
# [3] = system: Escherichia coli CSH2 (RK1)
# In short: as §1
# [4] = system: Klebsiella pneumoniae IFO 3317; conditions: IFO3317, Muller-Hinton agar, 37°C overnight
# In short: as §1
# [5] = system: Klebsiella pneumoniae No. 42; conditions: Muller-Hinton agar, 37°C overnight
# In short: as §1
# [6] = system: Micrococcus luteus ATCC 9341; conditions: ATCC9341, Muller-Hinton agar, 37°C overnight
# In short: as §1
# [7] = system: Morganella morganii IFO 3848; conditions: IFO3848, Muller-Hinton agar, 37°C overnight
# In short: as §1
# [8] = system: Proteus mirabilis IFO 3849; conditions: IFO3849, Muller-Hinton agar, 37°C overnight
# In short: as §1
# Proteus vulgalis OX-19 = conditions: Muller-Hinton agar, 37°C overnight
# In short: as §1
# [9] = system: Psuedomonas aeruginosa IFO 3445; conditions: Muller-Hinton agar, 37°C overnight
# In short: as §1
# [10] = system: Serratia marcescens IAM 1184; conditions: IAM1184, Muller-Hinton agar, 37°C overnight
# In short: as §1
# [11] = system: Staphylococcus aureus 167; conditions: Staphylococcus aureus 167 (MRSA); Muller-Hinton agar, 37°C overnight
# In short: as §1
# [12] = system: Staphylococcus aureus 209P JC-1; conditions: Muller-Hinton agar, 37°C overnight
# In short: as §1
# [13] = system: Staphylococcus epidermidis IAM 1296; conditions: IAM1296, Muller-Hinton agar, 37°C overnight
# In short: as §1
compound,measurement,setting,value
"CO[C@@]1(NC(=O)CSC(F)F)C(=O)N2C(C(=O)O)=C(CSc3nnnn3CCO)CO[C@@H]21 [FMOX, flomoxef, reference compound]",MIC,[1],0.39 µg/mL
same,MIC,[2],0.1 µg/mL
same,MIC,[3],0.05 µg/mL
same,MIC,[4],0.05 µg/mL
same,MIC,[5],0.1 µg/mL
same,MIC,[6],0.2 µg/mL
same,MIC,[7],0.39 µg/mL
same,MIC,[8],0.2 µg/mL
same,MIC,Proteus vulgalis OX-19,0.39 µg/mL
same,MIC,[9],> 100 µg/mL
same,MIC,[10],0.2 µg/mL
same,MIC,[11],100 µg/mL
same,MIC,[12],0.39 µg/mL
same,MIC,[13],0.2 µg/mL
